Where “and” joins values, the source holds several entries; their conditions need not be identical. Equal entries are not always repeated.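 Compound exposure: 48 hours, 5 concentrations, 96-well plates. At the GI50, growth is halved. TGI marks complete inhibition of growth.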
Key:
Experiment in all cases: NCI-60 cell line screen, 48 h
NCI-H460 lung = test system: NCI-H460 lung
HL-60(TB) leukemia = test system: HL-60(TB) leukemia
SNB-19 CNS = test system: SNB-19 CNS
SN12C renal = test system: SN12C renal
SK-MEL-2 melanoma = test system: SK-MEL-2 melanoma
786-0 renal = test system: 786-0 renal
HCT-15 colon = test system: HCT-15 colon
SNB-75 CNS = test system: SNB-75 CNS
NCI-H522 lung = test system: NCI-H522 lung
KM20L2 colon = test system: KM20L2 colon

SMILES | TGI (NCI-H460 lung) | TGI (HL-60(TB) leukemia) | TGI (SNB-19 CNS) | TGI (SN12C renal) | TGI (SK-MEL-2 melanoma) | TGI (786-0 renal) | TGI (HCT-15 colon) | TGI (SNB-75 CNS) | TGI (NCI-H522 lung) | TGI (KM20L2 colon) | GI50 (NCI-H460 lung) | GI50 (HL-60(TB) leukemia) | GI50 (SNB-19 CNS) | GI50 (SK-MEL-2 melanoma) [µM] | GI50 (HCT-15 colon) | GI50 (SNB-75 CNS) | GI50 (NCI-H522 lung) | GI50 (KM20L2 colon) [µM] | GI50 (SN12C renal) [µM] | GI50 (786-0 renal) [µM]
O=C1NC(Cc2ccccc2)C(=O)N2CCCC12 (stereo not given) | > 100 µM | > 100 µM | > 100 µM | > 100 µM | > 100 µM | > 100 µM | > 100 µM | > 100 µM | > 100 µM | > 100 µM |  |  |  |  |  |  |  |  |  | 
Cc1cc(N(CCC#N)CCC#N)ccc1CC1N=C(c2ccccc2)OC1=O (stereo not given) | > 100 µM | > 100 µM | > 100 µM | > 100 µM | > 100 µM | > 100 µM | > 100 µM | > 100 µM | > 100 µM | > 100 µM |  |  |  |  |  |  |  |  |  | 
O=C(CC(=O)N1N=C(c2ccccc2)C(N=Nc2ccccc2Cl)C1=O)Nc1ccccc1Cl (stereo not given) | > 100 µM | 25.9 µM | > 100 µM | > 100 µM | > 100 µM | 49.6 µM | > 100 µM | 49.9 µM | > 100 µM | > 100 µM |  |  |  |  |  |  |  |  |  | 
COC(=O)Cc1nn2c(nc1=O)sc1ccc3ccccc3c12 | > 100 µM | > 100 µM | > 100 µM | > 100 µM | > 100 µM | > 100 µM | > 100 µM | 76.3 µM | > 100 µM | > 100 µM |  |  |  |  |  |  |  |  |  | 
Cc1cc(Cl)ccc1Nc1nc2c(s1)C(=O)c1ccccc1C2=O | 9.5 µM | 2.68 µM | 16.3 µM | 3.33 µM | 22.7 µM | 4.38 µM | 3.68 µM | 22 µM | 4.08 µM | 39.4 µM |  |  |  |  |  |  |  |  |  | 
COC1C(C)OC(OC2CC(C)(O)Cc3cc4c(c(O)c32)C(=O)c2c(O)cc3c(c2C4=O)OC2OC3(C)C(O)C(N(C)C)C2O)C(OC)C1(C)OC (stereo not given) | 1.86 µM and 0.233 µM | 0.588 µM and 0.535 µM |  | 6.12 µM and 6.56 µM | 0.137 µM and 0.0386 µM | 2.46 µM | 9.85 µM and 15.2 µM |  |  | 0.571 µM and 1.6 µM | 0.0303 µM and 0.0155 µM | 0.0711 µM and 0.105 µM | 0.055 µM and 0.0181 µM | 0.0303 | 0.641 µM and 0.494 µM | 0.00361 µM and 0.0315 µM | 0.093 µM and 0.0186 µM | 0.0651 |  | 
CCOC(=O)Cn1c(=O)[nH]c(=O)c2[nH]cnc21 | > 100 µM | > 100 µM | > 100 µM | > 100 µM | > 100 µM | > 100 µM | > 100 µM | > 100 µM | > 100 µM | > 100 µM |  |  |  |  |  |  |  |  |  | 
O=C(NC(Cc1ccccc1)C(=O)CCl)OCc1ccccc1 (stereo not given) | 17.4 µM and 19.8 µM | 43.1 µM and 13.4 µM | 25.3 µM and 25.1 µM | 17.7 µM and 20.3 µM | 4.89 µM and 22 µM | 14.7 µM and 16.6 µM | 8.56 µM and 17.8 µM | 18.9 µM and 30.2 µM | 3.43 µM and 4.31 µM | 20.2 µM | 4.34 µM | 14.3 µM |  | 1.96 | 2.32 µM | 4.77 µM | 1.36 µM |  |  | 
CSCC(COC(C)=O)(CSC)c1ccncc1 | > 100 µM | > 100 µM | > 100 µM | > 100 µM | > 100 µM | > 100 µM | > 100 µM | > 100 µM | > 100 µM | > 100 µM |  |  |  |  |  |  |  |  |  | 
[Au+].c1c[n-]cn1.c1ccc([PH+](c2ccccc2)c2ccccc2)cc1 | 59.9 µM | 4.81 µM | 18 µM | 27.4 µM | 8.06 µM | 3.04 µM | 15.8 µM | 33.7 µM | 2.93 µM | 58.3 µM | 15.3 µM | 1.66 µM | 7.28 µM | 2.53 | 3.42 µM | 15.2 µM | 1.19 µM | 21.9 | 10.3 | 1.66
O=C(CC1(O)C(=O)Nc2ccc([N+](=O)[O-])cc21)c1ccc(Br)cc1 (stereo not given) | > 100 µM | 45.7 µM | > 100 µM | > 100 µM | > 100 µM | > 100 µM | > 100 µM | 76.7 µM | 47.9 µM | > 100 µM |  |  |  |  |  |  |  |  |  | 
Cc1cc(C)c(C(=O)/C(=C/c2ccccc2)c2ccccc2)c(C)c1 | > 100 µM | 90.6 µM | > 100 µM | > 100 µM | 43.4 µM | > 100 µM | > 100 µM | > 100 µM | 77.2 µM | > 100 µM |  |  |  |  |  |  |  |  |  | 
CC(C)OC(=O)c1cccnc1/C=N/O | > 100 µM | > 100 µM | > 100 µM | > 100 µM | > 100 µM | > 100 µM | > 100 µM | > 100 µM | > 100 µM | > 100 µM |  |  |  |  |  |  |  |  |  | 
COc1cc([C@@H]2c3cc4c(cc3[C@@H](NC(=O)c3ccc(OC(C)=O)cc3)C3COC(=O)[C@@H]32)OCO4)cc(OC)c1O (stereo not given in full) |  | 0.688 µM | > 100 µM | 4.05 µM | 16.6 µM | 3.47 µM | 24.4 µM | 5.86 µM | 4.37 µM | 12.7 µM |  |  |  |  |  |  |  |  |  | 
O=C(O)c1ccccc1C1c2ccc(Cl)cc2Oc2cc(Cl)ccc21 | > 100 µM | > 100 µM | > 100 µM | > 100 µM | > 100 µM | > 100 µM | > 100 µM | > 100 µM | > 100 µM | > 100 µM |  |  |  |  |  |  |  |  |  | 

— PubChem BioAssay (NCI)
